Reference: US12398097B2, “WDR5-MYC inhibitors” (Vanderbilt University, priority 2019, dated 2025)

Target: WDR5 (Homo sapiens, UniProt P61964)
Test: Competition-based fluorescence polarization anisotropy assay
Settings: binding to WDR5; displacement of FITC-labeled small molecule probe (analogous to Example J2 or HCH-25) or peptide probe FITC-AHx-SEEEIDVVSV; pH 6.0; Ki converted from IC50
Outline: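 Competition fluorescence polarization anisotropy binding to WDR5 using a FITC-labeled peptide probe or a fluorescently labeled small-molecule probe. Buffer: 200 mM phosphate, 300 mM NaCl, 0.5 mM TCEP, 0.1% Chaps, pH 6.0. Displacement data were converted to Ki.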

| Compound | Ki [nM] |
| --- | --- |
| O=C(O)c1cc(F)cc(NS(=O)(=O)c2cc(Br)ccc2O)c1O [Example J107, 3-((5-Bromo-2-hydroxyphenyl)sulfonamido)-5-fluoro-2-hydroxybenzoic acid] | 1480 |
| COCCNS(=O)(=O)c1cc(Cl)cc(NS(=O)(=O)c2cc(Br)cc(Cl)c2O)c1O [Example S30, 5-bromo-3-chloro-N-(5-chloro-2-hydroxy-3-(N-(2-methoxyethyl)sulfamoyl)phenyl)-2-hydroxybenzenesulfonamide] | 3050 |
| COC1CCN(C(=O)c2cc(Cl)cc(NS(=O)(=O)c3cc(Br)ccc3O)c2O)C1 (centres unmarked) [Example J24, 5-Bromo-N-(5-chloro-2-hydroxy-3-(3-methoxypyrrolidine-1-carbonyl)phenyl)-2-hydroxybenzenesulfonamide] | 5440 |
| CNC(=O)c1cc(C2(C#N)CCC2)cc(NS(=O)(=O)c2cc(Br)cc(Cl)c2OC)c1O [SN-3, 3-((5-bromo-3-chloro-2-methoxyphenyl)sulfonamido)-5-(1-cyanocyclobutyl)-2-hydroxy-N-methylbenzamide] | 13700 |
| O=C(NCCO)c1cc(F)cc(NS(=O)(=O)c2cc(Br)ccc2O)c1O [Example J111, 3-((5-Bromo-2-hydroxyphenyl)sulfonamido)-5-fluoro-2-hydroxy-N-(2-hydroxyethyl)benzamide] | 2930 |
| O=C(c1cc(OC(F)(F)F)cc(NS(=O)(=O)c2cc(Br)ccc2O)c1O)N1CC[C@@H](O)C1 [Example J173, (R)-5-Bromo-2-hydroxy-N-(2-hydroxy-3-(3-hydroxypyrrolidine-1-carbonyl)-5-(trifluoromethoxy)phenyl)benzenesulfonamide] | 1560 |
| COc1ccc(Br)cc1S(=O)(=O)Nc1cc(Cl)cc(C(=O)N2CCOCC2)c1O [Example J48, 5-Bromo-N-(5-chloro-2-hydroxy-3-(morpholine-4-carbonyl)phenyl)-2-methoxybenzenesulfonamide] | 6190 |
| COCCNC(=O)c1c(O)c(NS(=O)(=O)c2cc(Br)ccc2O)cc(C2CC2)c1F [Example J127, 3-((5-Bromo-2-hydroxyphenyl)sulfonamido)-5-cyclopropyl-6-fluoro-2-hydroxy-N-(2-methoxyethyl)benzamide] | 1970 |
| CC(C)CNc1ccc(Br)cc1S(=O)(=O)Nc1cc(C2CC2)cc(C(=O)O)c1O [Example J74, 3-((5-Bromo-2-(isobutylamino)phenyl)sulfonamido)-5-cyclopropyl-2-hydroxybenzoic acid] | 3930 |
| COC[C@@H]1CCCN1C(=O)c1cc(OC(F)(F)F)cc(NS(=O)(=O)c2cc(Cl)ccc2O)c1O [Example J176, (S)-5-Chloro-2-hydroxy-N-(2-hydroxy-3-(2-(methoxymethyl)pyrrolidine-1-carbonyl)-5-(trifluoromethoxy)phenyl)benzenesulfonamide] | 7010 |
| O=C(O)c1cc(C2CC2)cc(NS(=O)(=O)c2cc(Br)cc3cccnc23)c1F [Example J113, 3-((6-Bromoquinoline)-8-sulfonamido)-5-cyclopropyl-2-fluorobenzoic acid] | 1710 |
| CN1CCN(C(=O)c2cc(C3CC3)cc(NS(=O)(=O)c3cc(Br)ccc3O)c2O)CC1 [Example J92, 5-Bromo-N-(5-cyclopropyl-2-hydroxy-3-(4-methylpiperazine-1-carbonyl)phenyl)-2-hydroxybenzenesulfonamide] | 4440 |
| CN(C)CCCS(=O)(=O)c1cc(Cl)cc(NS(=O)(=O)c2cc(Br)cc(Cl)c2O)c1 [Example S51, 5-Bromo-3-chloro-N-(3-chloro-5-((3-(dimethylamino)propyl)sulfonyl)phenyl)-2-hydroxybenzenesulfonamide] | 1450 |
| CNS(=O)(=O)c1cc(Cl)cc(NS(=O)(=O)c2cc(Br)cc(Cl)c2O)c1O [Example S28, 5-bromo-3-chloro-N-(5-chloro-2-hydroxy-3-(N-methylsulfamoyl)phenyl)-2-hydroxybenzenesulfonamide] | 20700 |

Now those with a lower Ki, led by results:

| Ki [nM] | Compound |
| --- | --- |
| 550 | O=S(=O)(Nc1cc(C2(C(F)(F)F)CC2)ccc1O)c1cc(Br)ccc1O [JDM-09-131, 5-Bromo-2-hydroxy-N-(2-hydroxy-5-(1-(trifluoromethyl)cyclopropyl)phenyl)benzenesulfonamide] |
| 360 | O=C(NC1CCOC1)c1cc(OC(F)(F)F)cc(NS(=O)(=O)c2cc(Br)ccc2O)c1O (centres unmarked) [Example J167, 3-((5-Bromo-2-hydroxyphenyl)sulfonamido)-2-hydroxy-N-(tetrahydrofuran-3-yl)-5-(trifluoromethoxy)benzamide] |
| 390 | CNC(=O)c1cc(C2(C#N)CCC2)cc(NS(=O)(=O)c2cc(Br)ccc2OC)c1O [Example J210, 3-((5-Bromo-2-methoxyphenyl)sulfonamido)-5-(1-cyanocyclobutyl)-2-hydroxy-N-methylbenzamide] |
| 1180 | O=C(NCCN1CCOCC1)c1cc(Cl)cc(NS(=O)(=O)c2cc(Br)ccc2O)c1O [Example J19, 3-((5-Bromo-2-hydroxyphenyl)sulfonamido)-5-chloro-2-hydroxy-N-(2-morpholinoethyl)benzamide] |
| 50 | N#CC1(c2cc(NS(=O)(=O)c3cc(Br)ccc3O)c(O)c(C(=O)Nc3nc[nH]n3)c2)CCC1 [Example J227, 3-((5-Bromo-2-hydroxyphenyl)sulfonamido)-5-(1-cyanocyclobutyl)-2-hydroxy-N-(1H-1,2,4-triazol-3-yl)benzamide] |
| 710 | O=C(NC1COC1)c1c(O)c(NS(=O)(=O)c2cc(Br)cc(Cl)c2O)cc(C2CC2)c1F [Example J149, 3-((5-Bromo-3-chloro-2-hydroxyphenyl)sulfonamido)-5-cyclopropyl-6-fluoro-2-hydroxy-N-(oxetan-3-yl)benzamide] |
| 1030 | N#CC1(c2cc(NS(=O)(=O)c3cc(Br)ccc3O)c(O)c(C(=O)NCC3CCCO3)c2)CCC1 (centres unmarked) [Example J220, 3-((5-Bromo-2-hydroxyphenyl)sulfonamido)-5-(1-cyanocyclobutyl)-2-hydroxy-N-((tetrahydrofuran-2-yl)methyl)benzamide] |
| 20 | O=C(O)c1cc(S(F)(F)(F)(F)F)cc(NS(=O)(=O)c2cc(Br)cc3cccnc23)c1O [Example S68] |
| 40 | O=C(O)c1cc(OC(F)(F)F)cc(NS(=O)(=O)c2cc(Br)cc(Cl)c2O)c1O [HCH-24, 3-((5-Bromo-3-chloro-2-hydroxyphenyl)sulfonamido)-2-hydroxy-5-(trifluoromethoxy)benzoic acid] |
| 580 | O=C(NC1COC1)c1cc(Cl)cc(NS(=O)(=O)c2cc(Br)ccc2O)c1O [Example J21, 3-((5-Bromo-2-hydroxyphenyl)sulfonamido)-5-chloro-2-hydroxy-N-(oxetan-3-yl)benzamide] |
| 1070 | O=C(NCCN1CCOCC1)c1cc(C2CC2)cc(NS(=O)(=O)c2cc(Br)ccc2O)c1O [Example J84, 3-((5-Bromo-2-hydroxyphenyl)sulfonamido)-5-cyclopropyl-2-hydroxy-N-(2-morpholinoethyl)benzamide] |
| 40 | CNC(=O)c1c(O)c(NS(=O)(=O)c2cc(Br)cc(Cl)c2O)cc(C2CC2)c1F [Example J146, 3-((5-Bromo-3-chloro-2-hydroxyphenyl)sulfonamido)-5-cyclopropyl-6-fluoro-2-hydroxy-N-methylbenzamide] |
| 600 | O=C(NCCN1CCOCC1)c1c(O)c(NS(=O)(=O)c2cc(Br)cc(Cl)c2O)cc(C2CC2)c1F [Example J148, 3-((5-Bromo-3-chloro-2-hydroxyphenyl)sulfonamido)-5-cyclopropyl-6-fluoro-2-hydroxy-N-(2-morpholinoethyl)benzamide] |
| 470 | O=C(N[C@H]1CCOC1)c1cc(Cl)cc(NS(=O)(=O)c2cc(Br)ccc2O)c1O [Example J22, (S)-3-((5-Bromo-2-hydroxyphenyl)sulfonamido)-5-chloro-2-hydroxy-N-(tetrahydrofuran-3-yl)benzamide] |
| 350 | O=C(O)c1cc(OC(F)(F)F)cc(NS(=O)(=O)c2cc(Br)cc3cccnc23)c1O [Example J161, 3-((6-Bromoquinoline)-8-sulfonamido)-2-hydroxy-5-(trifluoromethoxy)benzoic acid] |
| 90 | CS(=O)(=O)c1cc(Cl)cc(NS(=O)(=O)c2cc(Br)ccc2O)c1O [Example S17, 5-Bromo-N-(5-chloro-2-hydroxy-3-(methylsulfonyl)phenyl)-2-hydroxybenzenesulfonamide] |
| 20 | CNC(=O)c1cc(S(F)(F)(F)(F)F)cc(NS(=O)(=O)c2cc(Br)ccc2O)c1O [Example S66, 3-((5-Bromo-2-hydroxyphenyl)sulfonamido)-2-hydroxy-N-methyl-5-(pentafluoro-λ^6-sulfaneyl)benzamide] |
| 240 | CS(=O)(=O)c1cc(C2CC2)cc(NS(=O)(=O)c2cc(Br)ccc2O)c1O [Example S26, 5-Bromo-N-(5-cyclopropyl-2-hydroxy-3-(methylsulfonyl)phenyl)-2-hydroxybenzenesulfonamide] |
